Source: paper PMC11566853, “Chemical genetic analysis of enoxolone inhibition of Clostridioides difficile toxin production reveals adenine deaminase and ATP synthase as antivirulence targets” (The Journal of Biological Chemistry, 2024)

Target: T1, adenine deaminase (Ade) (Clostridioides difficile, UniProt A0A9R0BKJ2)
T1 construct: codon-optimized ade in pWL613a (pET28b derivative), N-terminal His-tag, expressed in E. coli BL21(DE3), Ni-NTA and Superdex 200
Assay: surface plasmon resonance, His-captured protein
Format: binding

T1 sequence (A0A9R0BKJ2 entry or part of it): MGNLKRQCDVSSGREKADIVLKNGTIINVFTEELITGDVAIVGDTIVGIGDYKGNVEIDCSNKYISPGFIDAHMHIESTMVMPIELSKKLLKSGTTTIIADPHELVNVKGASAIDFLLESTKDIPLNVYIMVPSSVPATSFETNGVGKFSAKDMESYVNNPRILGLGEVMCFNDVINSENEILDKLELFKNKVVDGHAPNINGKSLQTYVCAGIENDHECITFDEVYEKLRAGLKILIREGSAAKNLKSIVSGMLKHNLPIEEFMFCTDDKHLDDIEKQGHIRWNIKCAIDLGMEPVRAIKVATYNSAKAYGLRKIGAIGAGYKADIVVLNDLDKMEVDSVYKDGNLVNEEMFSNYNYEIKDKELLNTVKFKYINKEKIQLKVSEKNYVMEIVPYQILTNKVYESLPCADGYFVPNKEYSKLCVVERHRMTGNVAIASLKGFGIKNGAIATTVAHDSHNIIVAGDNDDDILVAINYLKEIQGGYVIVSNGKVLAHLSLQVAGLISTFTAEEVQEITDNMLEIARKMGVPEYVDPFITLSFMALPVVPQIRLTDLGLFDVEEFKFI

**Q.** How did the Kd turn out when CC1(C)[C@@H](O)CC[C@]2(C)[C@H]3C(=O)C=C4[C@@H]5C[C@@](C)(C(=O)O)CC[C@]5(C)CC[C@@]4(C)[C@]3(C)CC[C@@H]12 [enoxolone] was run?
**A.** Its Kd is 34.6 ± 13.4 µM.

**Q.** Clc1ncnc2[nH]cnc12 [6-chloropurine] was tested. Which Kd did it give?
**A.** The Kd was 264 ± 42.9 µM.
